Data on 16 compounds can be found in US9221834B2 (Merck Sharp & Dohme Corp., priority 2010, dated 2015).

The experiment addresses T1, recombinant CETP (rCETP) (Homo sapiens, UniProt P11597).
T1 sequence (P11597 18-493): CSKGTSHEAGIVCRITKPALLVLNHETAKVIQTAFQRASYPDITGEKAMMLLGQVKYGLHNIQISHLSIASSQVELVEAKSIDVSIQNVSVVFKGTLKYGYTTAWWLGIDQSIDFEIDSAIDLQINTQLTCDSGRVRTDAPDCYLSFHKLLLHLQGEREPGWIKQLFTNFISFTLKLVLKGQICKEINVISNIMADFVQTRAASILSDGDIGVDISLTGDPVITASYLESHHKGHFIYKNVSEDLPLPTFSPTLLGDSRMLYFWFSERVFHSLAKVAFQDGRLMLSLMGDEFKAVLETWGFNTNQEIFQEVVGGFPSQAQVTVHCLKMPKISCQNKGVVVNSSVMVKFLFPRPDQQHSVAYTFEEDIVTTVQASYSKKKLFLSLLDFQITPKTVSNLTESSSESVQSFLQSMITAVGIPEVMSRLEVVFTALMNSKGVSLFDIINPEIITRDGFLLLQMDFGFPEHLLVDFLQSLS
Description: RTA assay using recombinant CETP (2% RTA). It is filed as biochemical. The conditions noted are these: RTA assay in 2% human serum; read-out: IC50. As to the method:
In Vitro Radioactive Assays of CETP-Catalyzed CE and TG Transfer (RTA Assay)
Reagents and sources are: [3H] cholesteryl oleate (GE #TRK.886), [3H]
Both assays measure the transfer of [3H] cholesteryl oleate or [3H]triolein from exogenous LDL to HDL.
After a brief vortex, the solution is sonicated until clear and mixed with 20 mL of fresh human serum. The mixture is incubated overnight at 37° C. […] Once isolated the particles are dialyzed 3× in CETP buffer (50 mM Tris, pH 7.4, 100 mM NaCl, 1 mM EDTA). Human HDL is purchased from Intracel and used as the acceptor particles.
Transfer assays are performed in a 96-well v-bottom polypropylene plate. […] 1 μL of each test compound diluted in DMSO is added to 47 μL of assay cocktail per well and incubated at 37° C. for 1 hour. To initiate the transfer reaction, 2 μL radiolabeled LDL is added. After an additional 60 min of incubation at 37° C., the transfer action is terminated by precipitation of LDL with an equal volume of 20% W/V PEG 8000. The plates are centrifuged at 2000 rpm for 30 minutes at 4° C. A 40 μL aliquot of the HDL-containing supernatant is transferred to a Packard Optiplate with 200 μL of MicroScint 20. After mixing, plates are counted by liquid scintillation. Counts present in the supernatant for blanks (wells containing only HDL acceptor, CETP buffer and DMSO) are subtracted from those containing test compounds and used to correct for non-specific transfer.
Comparison of the counts of samples with inhibitors to an uninhibited (DMSO only) positive control yield a percent inhibition. A plot of percent inhibition vs. log of inhibitor concentration, fit to a Sigmoidal 4 parameter equation is used to calculate IC50.

In the case of `COC(=O)C[C@H]1C[C@@H](c2ccc(OC)c(-c3ccc(N4CCC4)nc3CN3C(=O)O[C@H](c4cc(C(F)(F)F)cc(C(F)(F)F)c4)[C@@H]3C)c2)C1` [Example 25], the IC50 was 0.014 µM.
With `COC(=O)C[C@H]1C[C@H](c2ccc(OC)c(-c3ccc(N4CCC4)nc3CN3C(=O)O[C@H](c4cc(C(F)(F)F)cc(C(F)(F)F)c4)[C@@H]3C)c2)C1` [Example 26], the IC50 was determined as 0.007 µM.
Regarding `COc1ccc(Cl)cc1-c1ccc(N2CCC2)nc1CN1C(=O)O[C@H](c2cc(C(F)(F)F)cc(C(F)(F)F)c2)[C@@H]1C` [Example 27, (4S,5R)-3-{[6-azetidin-1-yl-3-(5-chloro-2-methoxyphenyl)pyridin-2-yl]methyl}-5-[3,5-bis(trifluoromethyl)phenyl]-4-methyl-1,3-oxazolidin-2-one], the IC50 was 0.003 µM.
Next, `COC(=O)c1cc(-c2ccc(OC)c(-c3ccc(N4CCC4)nc3CN3C(=O)O[C@H](c4cc(C(F)(F)F)cc(C(F)(F)F)c4)[C@@H]3C)c2)no1` [Example 28]: 0.08 µM.
On to `COC(=O)c1c(C)c(-c2ccc(OC)c(-c3ccc(N4CCC4)nc3CN3C(=O)O[C@H](c4cc(C(F)(F)F)cc(C(F)(F)F)c4)[C@@H]3C)c2)nn1C` [Example 29], for which the IC50 was determined as 0.014 µM.
On to `COC(=O)c1cnc(-c2ccc(OC)c(-c3ccc(N4CCC4)nc3CN3C(=O)O[C@H](c4cc(C(F)(F)F)cc(C(F)(F)F)c4)[C@@H]3C)c2)cn1` [Example 30], for which the IC50 was 0.133 µM.
For `COC(=O)CCc1ccc(OC)c(-c2ccc(N3CCC3)nc2CN2C(=O)O[C@H](c3cc(F)c(F)c(F)c3)[C@@H]2C)c1` [Example 31] the value was 0.097 µM; for `COC(=O)CC(C)(C)c1ccc(OC)c(-c2ccc(N3CCC3)nc2CN2C(=O)O[C@H](c3cc(F)c(F)c(F)c3)[C@@H]2C)c1` [Example 32], 0.107 µM; for `COc1ccc([C@H]2CC[C@H](C(=O)OC)CC2)cc1-c1ccc(N2CCC2)nc1CN1C(=O)O[C@H](c2cc(F)c(F)c(F)c2)[C@@H]1C` [Example 35], 0.439 µM.
Next, `COC(=O)c1ccc(-c2cc(-c3ccc(N4CCC4)nc3CN3C(=O)O[C@H](c4cc(F)c(F)c(F)c4)[C@@H]3C)c(OC)cc2F)c(C)c1` [Example 36]: 0.026 µM; `COc1cc(F)c([C@H]2C[C@@H](C(=O)OC)C2)cc1-c1ccc(N2CCC2)nc1CN1C(=O)O[C@H](c2cc(C(F)(F)F)cc(C(F)(F)F)c2)[C@@H]1C` [Example 37]: 0.017 µM.
Consider `COc1cc(F)c([C@H]2C[C@H](C(=O)OC)C2)cc1-c1ccc(N2CCC2)nc1CN1C(=O)O[C@H](c2cc(C(F)(F)F)cc(C(F)(F)F)c2)[C@@H]1C` [Example 38], for which the 50% inhibitory concentration (IC50) was 0.005 µM.
As to `COC(=O)Cc1ccc(OC)c(-c2c(C)cc(N3CCC3)nc2CN2C(=O)O[C@H](c3cc(C(F)(F)F)cc(C(F)(F)F)c3)[C@@H]2C)c1` [Example 40], the IC50 stood at 0.003 µM.
Next, `COC(=O)c1cc(C)c(-c2ccc(OC)c(-c3ccc(N4CCC4)nc3CN3C(=O)O[C@H](c4cc(C(F)(F)F)cc(C(F)(F)F)c4)[C@@H]3C)c2)s1` [Example 46, Methyl 5-{3-[6-azetidin-1-yl-2-({(4S,5R)-5-[3,5-bis(trifluoromethyl)phenyl]-4-methyl-2-oxo-1,3-oxazolidin-3-yl}methyl)pyridin-3-yl]-4-methoxyphenyl}-4-methylthiophene-2-carboxylate]: 0.01 µM.
`COC(=O)c1ccc(-c2ccc(OC)c(-c3ccc(N4CCC4)nc3CN3C(=O)O[C@H](c4cc(C(F)(F)F)cc(C(F)(F)F)c4)[C@@H]3C)c2)o1` [Example 47, Methyl 5-{3-[6-azetidin-1-yl-2-({(4S,5R)-5-[3,5-bis(trifluoromethyl)phenyl]-4-methyl-2-oxo-1,3-oxazolidin-3-yl}methyl)pyridin-3-yl]-4-methoxyphenyl}-2-furoate]: the half-maximal inhibitory concentration (IC50) came to 0.034 µM.
Next, `COC(=O)c1ccc(-c2ccc(OC)c(-c3ccc(N4CCC4)nc3CN3C(=O)O[C@H](c4cc(C(F)(F)F)cc(C(F)(F)F)c4)[C@@H]3C)c2)s1` [Example 48]: 0.065 µM.

By IC50 is commonly meant the concentration at which inhibition is half-maximal.
